PMC9481570, “A small molecule antagonist of SMN disrupts the interaction between SMN and RNAP II” (Nature Communications, 2022)
Read-outs that look alike come from different tables or passages of the source.

Tests used:
[1] = molecular target: T1, UHRF1 tandem Tudor domain (TTD) (Homo sapiens, UniProt Q96T88); test: ITC binding to tandem Tudor domain of UHRF1
T1 construct: UHRF1 (aa 126–285); His (N, cleaved yes); made in house; host or cells: E. coli BL21 (DE3) Codon plus RIL
T1 sequence (Q96T88 126-285): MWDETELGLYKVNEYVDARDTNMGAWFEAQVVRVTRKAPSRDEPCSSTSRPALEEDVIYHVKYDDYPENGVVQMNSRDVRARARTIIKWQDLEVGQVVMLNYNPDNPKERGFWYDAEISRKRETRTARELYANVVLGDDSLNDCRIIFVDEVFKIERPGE
From the text: (§1) The coding DNA fragments of following Tudor domains were cloned into pET28-MHL vector: SMN (aa 82–147), UHRF1 (aa 126–285), SMNDC1 (aa 53–130), TDRD3 (aa 554–611), SND1 (aa 650–910), TDRD2 (aa 327–420), FXR1 (aa 2–132), PHF1 (aa 28–87), SGF29 (aa 115–293), JMJD2A (aa 897–1101), 53BP1 (aa 1483–1606), SETDB1 (aa 190–410), LBR (aa 1–67), ZGPAT (aa 120–271). The coding regions of chromodomain of CBX7 (aa 8–62), PWWP domain of DNMT3A (aa 275–417), WD40 repeats of WDR5 (aa 24–334) and CW domain of ZCWPW2 (aa 21–78) were also subcloned into pET28-MHL vector to generate N-terminally His-tagged fusion protein. The MBT repeats of L3MBTL1 (aa 200–522) and L3MBTL2 (aa 170–625) were subcloned into pET28GST-LIC vector to generate N-terminally GST-His-tagged fusion protein. All the plasmids were generated by ligase independent cloning (Vazyme Biotech, C112 or ABclonal Technology, RK21020). […] The proteins were further purified by Superdex75 or Superdex200 gel-filtration column (GE Healthcare) in a buffer containing 20 mM Tris-HCl, pH 7.5, 150 mM NaCl and 1 mM DTT. For crystallization experiments, purified proteins were concentrated to 18 mg/mL for SMN, 23 mg/mL for UHRF1 and 10 mg/mL for TDRD3 in the gel-filtration buffer. All the mutations were introduced with the QuikChange II XL site-directed mutagenesis kit (Stratagene, 200522) and confirmed by DNA sequencing. Mutant proteins were also expressed in E. coli BL21 (DE3) Codon plus RIL and purified using the same procedures described above. The molecular weight of all protein samples was measured by mass spectrometry.
(§2) For the ITC measurement, the concentrated proteins were diluted into 20 mM Tris-HCl, pH 7.5, 150 mM NaCl (ITC buffer); the lyophilized compounds were dissolved in the same buffer, and the pH value was adjusted by adding 2 M NaOH or 2 M HCl. The compounds that could not be dissolved in the ITC buffer were dissolved in DMSO with the accessible highest concentration. Compound concentrations were calculated from the mass and the volume of the solvent. For the ITC assay with compound dissolved in DMSO, the protein was diluted by ITC buffer containing same final concentration of DMSO. All measurements were performed in duplicate at 25 °C, using a VP-ITC (MicroCal, Inc.), an iTC-200 (MicroCal, Inc.), or a Nano-ITC (TA, Inc.) microcalorimeter. The protein with a concentration of 50–100 μM was placed in the cell chamber, and the compounds with a concentration of 0.5–2 mM in syringe was injected in 25, 20, or 20 successive injections with a spacing of 180, 150, or 120 s for VP-ITC, iTC-200, or Nano-ITC, respectively, as previously described[30]–[32]. iTC-200 or Nano-ITC data were consistent with those from the VP-ITC instrument, based on ITC results of SMN-compound 1 detected by using all the instruments. Control experiments were performed under identical conditions to determine the heat signals that arise from injection of the compounds into the buffer. Data were fitted using the single-site binding model within the Origin software 7.0 package (MicroCal, Inc.) or the independent model within the Nano-Analyze software package (TA, Inc.).

SMN Tudor domain = molecular target: T2, SMN Tudor domain (Homo sapiens, UniProt Q16637); test: ITC binding to Tudor domain of SMN
T2 construct: SMN (aa 82–147); His (N, cleaved yes); made in house; host or cells: E. coli BL21 (DE3) Codon plus RIL
From the text: as §1, §2

SMN cage mutants = test: Biotin-Cmpd 1 pulldown from U2OS cell lysates, SMN cage mutants; assay type: binding, human; conditions: U2OS cell lysate, 20 μM biotin-Cmpd 1 (Fig. 2d)
Method: (§3) U2OS cells were lysed in RIPA buffer (140 mM NaCl, 10 mM Tris-HCl, pH 7.6, 1% Triton, 0.1% sodium deoxycholate, 1 mM EDTA) containing protease inhibitors (Roche, 05892791001). The cell lysate was incubated with 20 μM biotin-Cmpd 1 overnight at 4 °C, then 30 μL streptavidin beads (Thermo Fisher, 20353) was added and incubated at 4 °C for 1 h. The beads were then washed with RIPA buffer for 3 times, 10 min/time and loading buffer was added and boiled for 5 min for elution. The eluted samples were separated by SDS-PAGE for western blotting (SMN monoclonal antibody, BD Transduction Laboratories, 610646, clone No. 8, dilution of 1:1000; TDRD3 rabbit monoclonal antibody, Cell signaling, 5492, clone No. 5492, dilution of 1:1000; SND1 polyclonal antibody, Bethyl, A302-883A, dilution of 1:2000; RFP polyclonal antibody, Abcam, ab62341, dilution of 1:1000; GFP monoclonal antibody, Santa Cruz Biotechnology, sc-9996, dilution of 1:1000; Streptavidin-Horseradish Peroxidase (HRP), Invitrogen, SA10001, dilution of 1:5000) as previously described[52],[53]. For the competition analysis, 200 μM biotin-free compound 1 or compound 15 was added at the same time when the biotin-Cmpd 1 was incubated with the cell lysates.

TDRD3 = TDRD3 (Homo sapiens, UniProt Q9H7E2); test: Biotin-Cmpd 1 pulldown from U2OS cell lysates and western blotting, TDRD3; assay type: binding; parameters: endogenous in cells; host or cells: U2OS; conditions: U2OS cell lysate, 20 μM biotin-Cmpd 1 (Fig. 2c, Supplementary Fig. 6)
Sequence of TDRD3 (Q9H7E2 whole entry): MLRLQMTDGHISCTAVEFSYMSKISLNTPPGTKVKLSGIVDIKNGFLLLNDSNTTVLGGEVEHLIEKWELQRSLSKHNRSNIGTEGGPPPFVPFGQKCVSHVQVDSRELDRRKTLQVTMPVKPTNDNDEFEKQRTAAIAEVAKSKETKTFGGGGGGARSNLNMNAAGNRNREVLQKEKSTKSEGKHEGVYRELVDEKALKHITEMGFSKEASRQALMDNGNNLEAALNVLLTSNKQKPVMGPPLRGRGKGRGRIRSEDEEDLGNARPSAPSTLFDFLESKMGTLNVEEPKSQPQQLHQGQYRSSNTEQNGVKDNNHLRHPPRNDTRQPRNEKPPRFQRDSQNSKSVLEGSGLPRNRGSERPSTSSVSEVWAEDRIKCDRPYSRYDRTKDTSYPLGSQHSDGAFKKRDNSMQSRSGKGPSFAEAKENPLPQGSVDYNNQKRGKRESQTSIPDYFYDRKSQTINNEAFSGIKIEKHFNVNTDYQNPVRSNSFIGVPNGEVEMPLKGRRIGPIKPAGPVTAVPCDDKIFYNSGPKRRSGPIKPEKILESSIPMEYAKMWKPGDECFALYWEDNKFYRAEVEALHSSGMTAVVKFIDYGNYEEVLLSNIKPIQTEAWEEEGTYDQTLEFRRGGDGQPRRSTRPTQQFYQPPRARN
Method: as §3

SMN = molecular target: T3, SMN (Homo sapiens, UniProt Q16637); test: Biotin-Cmpd 1 pulldown from U2OS cell lysates and western blotting, SMN; assay type: binding; conditions: U2OS cell lysate, 20 μM biotin-Cmpd 1, overnight 4 °C (Fig. 2c, Supplementary Fig. 6)
T3 construct: endogenous in cells; host or cells: U2OS
Method: as §3

SND1 = molecular target: T4, SND1 (Homo sapiens, UniProt Q7KZF4); test: Biotin-Cmpd 1 pulldown from U2OS cell lysates and western blotting, SND1; assay type: binding; conditions: U2OS cell lysate, 20 μM biotin-Cmpd 1 (Fig. 2c, Supplementary Fig. 6)
T4 construct: endogenous in cells; host or cells: U2OS
T4 sequence (Q7KZF4 whole entry): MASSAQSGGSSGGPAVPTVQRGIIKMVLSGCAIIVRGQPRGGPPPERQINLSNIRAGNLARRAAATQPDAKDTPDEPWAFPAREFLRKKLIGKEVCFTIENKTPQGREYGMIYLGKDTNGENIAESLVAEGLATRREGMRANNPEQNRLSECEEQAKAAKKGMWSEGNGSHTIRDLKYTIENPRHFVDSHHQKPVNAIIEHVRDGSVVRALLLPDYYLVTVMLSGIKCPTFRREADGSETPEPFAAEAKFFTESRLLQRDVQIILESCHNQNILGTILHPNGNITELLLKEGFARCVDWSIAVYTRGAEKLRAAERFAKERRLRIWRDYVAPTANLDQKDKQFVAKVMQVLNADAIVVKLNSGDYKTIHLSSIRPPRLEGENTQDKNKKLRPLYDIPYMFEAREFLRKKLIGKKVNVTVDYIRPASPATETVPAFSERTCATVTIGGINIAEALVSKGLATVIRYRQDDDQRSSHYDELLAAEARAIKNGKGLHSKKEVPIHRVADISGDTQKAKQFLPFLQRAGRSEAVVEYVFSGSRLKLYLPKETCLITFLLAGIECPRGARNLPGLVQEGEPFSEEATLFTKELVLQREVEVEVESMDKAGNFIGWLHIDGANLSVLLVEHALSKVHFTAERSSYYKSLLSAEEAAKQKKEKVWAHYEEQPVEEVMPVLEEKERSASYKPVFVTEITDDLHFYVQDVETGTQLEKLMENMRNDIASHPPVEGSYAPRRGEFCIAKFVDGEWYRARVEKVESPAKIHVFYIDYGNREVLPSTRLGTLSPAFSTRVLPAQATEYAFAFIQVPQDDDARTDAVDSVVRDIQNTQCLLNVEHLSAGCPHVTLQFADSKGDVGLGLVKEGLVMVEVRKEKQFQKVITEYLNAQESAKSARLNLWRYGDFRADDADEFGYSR
Method: as §3

[2] = molecular target: R1810me2s-POLR2A (Homo sapiens) (UniProt P24928); conditions: cited from earlier work
[3] = ITC, Tudor domain of SMN wild type, 25 °C, read-out: Kd (SMN)
[4] = ITC, Tudor domain of SMN wild type, 25 °C
[5] = Supplementary Fig. 12, read-out: Kd, binding affinity (determined by ITC) of different compounds to SMN

Compound | Kd (UHRF1) [1] | Kd (SMN) (SMN Tudor domain; [4]) | Kd (SMN Tudor domain; [5]) [µM] | also measured
CCOC(=O)Cn1c2c(c(=N)c3c1CCC3)CCC2 [Compound 3, ethyl 2-(8-imino-2,3,5,6,7,8-hexahydrodicyclopenta[b,e]pyridin-4(1H)-yl)acetate] | No binding |  |  | Kd (SMN Tudor domain; [3]): 31 ± 2 µM
N=c1c2c(n(Cc3ccc(F)cc3)c3c1CCC3)CCC2 [Compound 4, 4-(4-fluorobenzyl)-2,3,4,5,6,7-hexahydrodicyclopenta[b,e]pyridin-8(1H)-imine] | No binding |  |  | Kd (SMN Tudor domain; [3]): 13 ± 1 µM
CCCCc1c(CCC)c(=N)c2ccccc2n1C [Compound 5, 2-butyl-1-methyl-3-propylquinolin-4(1H)-imine] | No binding |  |  | Kd (SMN Tudor domain; [3]): 12 ± 1 µM
Cc1cc(=N)c2ccccc2n1C [Compound 6, 1,2-dimethylquinolin-4(1H)-imine] | Weak binding |  |  | Kd (SMN Tudor domain; [3]): 12 ± 2 µM
Nc1cccc2ocnc12 [Compound 7, benzo[d]oxazol-4-amine] | No binding | No binding | > 244 | 
Nc1cccc2cccnc12 [Compound 8, quinolin-8-amine] | No binding | No binding |  | Kd (SMN Tudor domain): > 244 µM
CN[C@@H]1CCc2ccccc21 [Compound 9, (R)-N-methyl-2,3-dihydro-1H-inden-1-aminium] | No binding | No binding | > 244 | 
C[C@H]1Cc2ccccc2[C@@H]1N [Compound 10, (1R,2S)-2-methyl-2,3-dihydro-1H-inden-1-aminium] | No binding | No binding | > 244 | 
NC[C@H]1CCc2ccccc21 [Compound 11, (S)-(2,3-dihydro-1H-inden-1-yl)methanaminium] | No binding | No binding | > 244 | 
Nc1cccc2ccsc12 [Compound 12, benzo[b]thiophen-7-amine] | No binding | No binding | > 244 | 
C[C@H]1CCc2ccccc2[C@@H]1N [Compound 13, (1R,2S)-2-methyl-1,2,3,4-tetrahydronaphthalen-1-aminium] | No binding | No binding | > 244 | 
C[C@H]1CC[C@@H](N)c2ccccc21 [Compound 14, (1R,4S)-4-methyl-1,2,3,4-tetrahydronaphthalen-1-aminium] | No binding | No binding | > 244 | 
CN1CC[C@H](N)c2ccccc21 [Compound 15, (S)-1-methyl-1,2,3,4-tetrahydroquinolin-4-aminium] | No binding | No binding | > 244 | 
CN1CC[C@H](CN)c2ccccc21 [Compound 16, (S)-(1-methyl-1,2,3,4-tetrahydroquinolin-4-yl)methanaminium] | No binding | No binding | > 244 | 
N=C(N)N1CCC(Cc2ccccc2)CC1 [Compound 17, 4-benzylpiperidine-1-carboximidamide] | No binding | No binding | > 244 | 
CCN(CC)c1ccc(C(=N)N)cc1 [Compound 18, 4-(diethylamino)benzimidamide] | No binding | No binding | > 244 | 
N=C(N)c1ccc(N)cc1 [Compound 19, 4-aminobenzimidamide] | No binding | No binding | > 244 | 
Cn1ccc(=N)cc1 [Compound 20, 1-methylpyridin-4(1H)-imine] | No binding | No binding | > 244 | 
N=c1c2c(n(CC(=O)NCCOCCOCCOCCNC(=O)CCCC[C@@H]3SC[C@@H]4NC(=O)N[C@@H]43)c3c1CCC3)CCC2 [biotin-Cmpd 1] |  |  |  | Kd (SMN Tudor domain; Supplementary Figs. 2, 4 and 11a (VP-ITC), read-out: Kd, ITC binding curve, Tudor domain of SMN): 87 ± 12 µM; pulldown of SMN cage mutants from cell lysates (SMN cage mutants): could not efficiently pull down; pulldown of TDRD3 from cell lysates (TDRD3): neither TDRD3 nor SND1 could be detected; pulldown of SMN from cell lysates (SMN): efficiently captured; pulldown of SMN from cell lysates (SMN; listed as Biotin-Cmpd 1): selectively chemiprecipates SMN; pulldown of SND1 from cell lysates (SND1): neither TDRD3 nor SND1 could be detected
SMN Tudor (from UniProt Q16637) |  |  |  | Kd [2]: 175 µM
